From patent US20090143279A1 (priority 2007, published 2009)
Like-named read-outs stand apart in the source and are kept apart here.

Key:
[1] = system: mitochondrial membrane potential; assay type: cell-based, mouse; conditions: for ΔΨm (composite Z-score): normalized score vs mock-treated (DMSO) wells
reactive oxygen species = assay type: cell-based, mouse; conditions: for ROS (composite Z-score): normalized score vs mock-treated (DMSO) wells
OXPHOS gene expression = assay type: cell-based, mouse; conditions: for GE-HTS (composite Z-score): normalized score vs mock-treated (DMSO) wells
nuOXPHOS transcripts = assay type: cell-based, mouse; conditions: for nucOX (composite Z-score): normalized score vs mock-treated (DMSO) wells
mtOXPHOS transcripts = assay type: cell-based, mouse; conditions: for mitoOX (composite Z-score): normalized score vs mock-treated (DMSO) wells
cytochrome c = assay type: cell-based, mouse; conditions: for cyt c (composite Z-score): normalized score vs mock-treated (DMSO) wells
C2C12 myotubes = conditions: for Viability (composite Z-score): normalized score vs mock-treated (DMSO) wells
[2] = system: cellular dehydrogenase activity; conditions: for MTT (composite Z-score): normalized score vs mock-treated (DMSO) wells
[3] = composite Z-score vs DMSO wells, Conc 20 μM
[4] = 20 μM, composite Z-score vs DMSO
[5] = 12.18 μM, composite Z-score vs DMSO
[6] = composite Z-score vs DMSO, Conc 20 μM
[7] = composite Z-score vs mock-treated (DMSO) wells, Conc 20 μM
[8] = normalized composite Z-score vs mock-treated (DMSO) wells, Conc 20 μM

## CCn1cc(C(=O)O)c(=O)c2cc3c(cc21)OCO3 [oxolinic acid]
[1]; [3]
  ΔΨm: −0.640
Reactive oxygen species; [3]
  ROS: 0.681
OXPHOS gene expression; [3]
  GE-HTS: 0.217
nuOXPHOS transcripts; [3]
  nucOX: 0.211
mtOXPHOS transcripts; [3]
  mitoOX: 0.171
Cytochrome c
  cyt c: 0.227
Cytochrome c; [3]
  cyt c: 0.083
C2C12 myotubes; [3]
  Viability: −0.913
[2]; [3]
  MTT: −1.598

## CCOC(=O)CCC(=O)O[C@H]1[C@H](O[C@@H]2[C@@H](C)[C@H](O[C@H]3C[C@@](C)(OC)[C@@H](O)[C@H](C)O3)[C@@H](C)C(=O)O[C@H](CC)[C@@](C)(O)[C@H](O)[C@@H](C)C(=O)[C@H](C)C[C@@]2(C)O)O[C@H](C)C[C@@H]1N(C)C [erythromycin ethylsuccinate]
[1]; [4]
  ΔΨm: −0.488
Reactive oxygen species; [4]
  ROS: 0.555
OXPHOS gene expression; [4]
  GE-HTS: −0.390
nuOXPHOS transcripts; [4]
  nucOX: −0.433
mtOXPHOS transcripts; [4]
  mitoOX: −0.163
Cytochrome c; [4]
  cyt c: 0.220
C2C12 myotubes; [4]
  Viability: −0.945
[2]; [4]
  MTT: −1.100

## C=C1CC[C@H](O)C/C1=C/C=C1\CCC[C@]2(C)[C@@H]([C@H](C)/C=C/[C@H](C)C(C)C)CC[C@@H]12 [ergocalciferol]
[1]; [4]
  ΔΨm: −0.449
Reactive oxygen species; [4]
  ROS: 1.541
OXPHOS gene expression; [4]
  GE-HTS: 0.661
nuOXPHOS transcripts; [4]
  nucOX: 0.723
mtOXPHOS transcripts; [4]
  mitoOX: 0.357
Cytochrome c; [4]
  cyt c: −0.118
C2C12 myotubes; [4]
  Viability: 0.372
[2]; [4]
  MTT: −1.658

## CCN(CC)CCNC(=O)c1cc(S(C)(=O)=O)ccc1OC [tiapride]
[1]; [5]
  ΔΨm: −0.800
[1]; [4]
  ΔΨm: 0.171
Reactive oxygen species; [5]
  ROS: 0.653
Reactive oxygen species; [4]
  ROS: −0.466
OXPHOS gene expression; [5]
  GE-HTS: 0.341
OXPHOS gene expression; [4]
  GE-HTS: −0.283
nuOXPHOS transcripts; [5]
  nucOX: 0.416
nuOXPHOS transcripts; [4]
  nucOX: −0.220
mtOXPHOS transcripts; [5]
  mitoOX: 0.086
mtOXPHOS transcripts; [4]
  mitoOX: −0.355
Cytochrome c; [5]
  cyt c: 0.917
Cytochrome c; [4]
  cyt c: −0.107
C2C12 myotubes; [5]
  Viability: −1.454
C2C12 myotubes; [4]
  Viability: 1.174
[2]; [5]
  MTT: −1.563
[2]; [4]
  MTT: −0.646

## COc1cc(OC)c2c(=O)c(-c3ccccc3)c(C)oc2c1OC [2-methyl-5,7,8-trimethoxyisoflavone]
[1]; [6]
  ΔΨm: 0.306
Reactive oxygen species; [6]
  ROS: −0.371
OXPHOS gene expression; [6]
  GE-HTS: 0.495
nuOXPHOS transcripts; [6]
  nucOX: 0.629
mtOXPHOS transcripts; [6]
  mitoOX: 0.081
Cytochrome c; [6]
  cyt c: 1.063
C2C12 myotubes; [6]
  Viability: −0.656
[2]; [6]
  MTT: −0.531

## N[C@@H](CCC(=O)N[C@@H](CSC(CC(=O)O)C(=O)O)C(=O)NCC(=O)O)C(=O)O (stereo partly drawn) [S-(1,2-dicarboxyethyl)glutathione]
[1]; [6]
  ΔΨm: 0.038
Reactive oxygen species; [6]
  ROS: 0.258
OXPHOS gene expression; [6]
  GE-HTS: −0.364
nuOXPHOS transcripts; [6]
  nucOX: −0.400
mtOXPHOS transcripts; [6]
  mitoOX: −0.219
Cytochrome c; [6]
  cyt c: −0.411
C2C12 myotubes; [6]
  Viability: −0.049
[2]; [6]
  MTT: −0.635

## COc1cc(/C=C/CO)ccc1O [coniferyl alcohol]
[1]; Conc 20 μM
  ΔΨm (composite Z-score): −0.719
Reactive oxygen species; Conc 20 μM
  ROS (composite Z-score): −0.450
OXPHOS gene expression; Conc 20 μM
  GE-HTS (composite Z-score): −0.593
nuOXPHOS transcripts; Conc 20 μM
  nucOX (composite Z-score): −0.688
mtOXPHOS transcripts; Conc 20 μM
  mitoOX (composite Z-score): −0.251
Cytochrome c; Conc 20 μM
  cyt c (composite Z-score): 0.296
C2C12 myotubes; Conc 20 μM
  Viability (composite Z-score): −0.771
[2]; Conc 20 μM
  MTT (composite Z-score): −1.094

## Cc1c(O)c(C(=O)CC(C)C)c2oc3c(C(=O)CC(C)C)c(O)c(C)c(O)c3c2c1O [rhodomyrtoxin]
[1]; Conc 20 μM
  ΔΨm (composite Z-score): 2.834
Reactive oxygen species; Conc 20 μM
  ROS (composite Z-score): 0.397
OXPHOS gene expression; Conc 20 μM
  GE-HTS (composite Z-score): 0.357
nuOXPHOS transcripts; Conc 20 μM
  nucOX (composite Z-score): 0.412
mtOXPHOS transcripts; Conc 20 μM
  mitoOX (composite Z-score): 0.206
Cytochrome c; Conc 20 μM
  cyt c (composite Z-score): −1.200
C2C12 myotubes; Conc 20 μM
  Viability (composite Z-score): −0.636
[2]; Conc 20 μM
  MTT (composite Z-score): 2.413

## CC(=O)c1c(O)c(C)c(O)c2c1oc1c(C(C)=O)c(O)c(C)c(O)c12 [diacetyldideisovaleryl-rhodomyrtoxin]
[1]; [7]
  ΔΨm: 1.937
Reactive oxygen species; [7]
  ROS: 0.967
OXPHOS gene expression; [7]
  GE-HTS: −0.776
nuOXPHOS transcripts; [7]
  nucOX: −0.742
mtOXPHOS transcripts; [7]
  mitoOX: −0.703
Cytochrome c; [7]
  cyt c: 0.057
C2C12 myotubes; [7]
  Viability: −0.779
[2]; [7]
  MTT: 0.875

## CC[C@H](C=C[C@@H](C)[C@H]1CC[C@H]2[C@@H]3CCC4=CC(=O)CC[C@]4(C)[C@H]3CC[C@]12C)C(C)C [stigmasta-4,22-dien-3-one]
[1]
  ΔΨm: −0.299
Reactive oxygen species
  ROS: 0.550
OXPHOS gene expression
  GE-HTS: −0.138
nuOXPHOS transcripts
  nucOX: −0.094
mtOXPHOS transcripts
  mitoOX: −0.118
Cytochrome c
  cyt c: 0.434
C2C12 myotubes
  Viability: 0.023
[2]
  MTT: −1.294

## CC1(C)C2CC(=O)[C@]3(C)C(CC[C@@]4(C)[C@H](c5ccoc5)OC(=O)[C@H]5O[C@]543)[C@@]2(C)C(=O)C[C@H]1O (stereo partly drawn)
[1]; [8]
  ΔΨm: −0.335
Reactive oxygen species; [8]
  ROS: 0.122
OXPHOS gene expression; [8]
  GE-HTS: −0.911
nuOXPHOS transcripts; [8]
  nucOX: −0.866
mtOXPHOS transcripts; [8]
  mitoOX: −0.875
Cytochrome c; [8]
  cyt c: 0.113
C2C12 myotubes; [8]
  Viability: −0.023
[2]; [8]
  MTT: −1.103

## COc1ccc(/C=C/C(=O)O)cc1OC [dimethylcaffeic acid]
[1]; Conc 20 μM
  ΔΨm (composite Z-score): −0.061
Reactive oxygen species; Conc 20 μM
  ROS (composite Z-score): −0.142
OXPHOS gene expression; Conc 20 μM
  GE-HTS (composite Z-score): −0.924
nuOXPHOS transcripts; Conc 20 μM
  nucOX (composite Z-score): −0.838
mtOXPHOS transcripts; Conc 20 μM
  mitoOX (composite Z-score): −0.885
Cytochrome c; Conc 20 μM
  cyt c (composite Z-score): 0.804
C2C12 myotubes; Conc 20 μM
  Viability (composite Z-score): 0.147
[2]; Conc 20 μM
  MTT (composite Z-score): −1.206
